Experimental data published in paper PMC5708362, “A systematic analysis of atomic protein–ligand interactions in the PDB” (MedChemComm, 2017).

Key:
thrombin = tested on: thrombin; parameters: method as in PMID 20148533; conditions: thrombin inhibitors; cited from earlier work
human sEH = tested on: human sEH; parameters: method as in PMID 19746975; conditions: human sEH inhibitors; cited from earlier work
human EGFR [1] = tested on: human EGFR; parameters: method as in PMID 23611691; conditions: human EGFR inhibitors; cited from earlier work
human EGFR [2] = assay: EGFR inhibition (salt bridge pair); assay type: biochemical; conditions: 9 (carbon in place of terminal N,N-dimethylamino nitrogen) vs 10
human factor Xa = assay: factor Xa inhibition, ammonium methylation series (cation–π); assay type: biochemical; conditions: trimethylated ammonium 17 vs tert-butyl analog 15

## O=C(NCc1cccc(Cl)c1)[C@@H]1CCCN1C(=O)CCc1ccccc1 [compound 3]
thrombin
  IC50: 94300 nM

## CN(C)CCCC(=O)Nc1cccc(-c2c(-c3ccccc3)oc3ncnc(N[C@H](CO)c4ccccc4)c23)c1 [compound 10]
Human EGFR [1]
  IC50: 29 nM

## CC(C)CCCC(=O)Nc1cccc(-c2c(-c3ccccc3)oc3ncnc(N[C@H](CO)c4ccccc4)c23)c1 [compound 9]
Human EGFR [2]
  potency reduced by fold: more than 800 fold
Human EGFR [1]
  IC50: > 25000 nM

## C[N+](C)(C)CCCN1C(=O)[C@@H]2[C@H](C1=O)[C@H](c1cc(-c3ccc(Cl)s3)on1)N1CCC[C@@H]21 (racemic) [(±)-17]
Human factor Xa
  fold increase in potency: 60 fold

## O=C(NCCCc1ccccc1)c1cccnc1 [compound 5]
Human sEH
  IC50: 700 nM
